{"source": "PubChem BioAssay AID1259411", "about": "(Chemical Carcinogenesis Research Information System (CCRIS), 2018)", "tested_on": "rodent carcinogenicity bioassays, tumor incidence", "experiment": "CCRIS carcinogenicity studies", "procedure,_shortened": "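Archive of carcinogenicity, mutagenicity, tumor promotion and tumor inhibition results drawn from journals, NCI reports and other sources, expert-reviewed; covers 1985-2011 and is no longer updated.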", "note": "Activity calls are given as the source filed them. No rule for the calls is given here.", "data": [{"smiles": "c1ccc2c3c4c(cccc4cc2c1)CC3", "values": [{"measurement": "carcinogen call", "setting": "Species: MOUSE, Strain/Sex: BLU:HA/FEMALE, Route: INTRAPERITONEAL, Dose: 0, 175 UG/KG/D ON DAYS 1 (1/7 TOTAL DOSE), 8 (2/7 TOTAL DOSE), AND 15 (4/7 TOTAL DOSE) AFTER BIRTH (STUDY DURATION: 9 MO", "result": "inactive; negative"}, {"measurement": "carcinogen call", "setting": "Species: MOUSE, Strain/Sex: BLU:HA/MALE, Route: INTRAPERITONEAL, Dose: 0, 175 UG/KG/D ON DAYS 1 (1/7 TOTAL DOSE), 8 (2/7 TOTAL DOSE), AND 15 (4/7 TOTAL DOSE) AFTER BIRTH (STUDY DURATION: 9 MO", "result": "inactive; negative"}, {"measurement": "carcinogen call", "setting": "Species: MOUSE, Strain/Sex: CD-1/FEMALE, Route: INTRAPERITONEAL, Dose: 0, 175, 437.5, 875 UG/KG/D ON DAYS 1 (1/7 TOTAL DOSE), 8 (2/7 TOTAL DOSE), AND 15 (4/7 TOTAL DOSE) AFTER BIRTH (STUDY DU, Dose: 0, 175, 437.5, 875 UG/KG/D ON DAYS 1 (1/7 TOTAL DOSE), 8 (2/7 TOTAL DOSE), AND 15 (4/7 TOTAL DOSE) AFTER BIRTH (STUDY DU", "result": "inactive; negative"}, {"measurement": "carcinogen call", "setting": "Species: MOUSE, Strain/Sex: CD-1/MALE, Route: INTRAPERITONEAL, Dose: 0, 175, 437.5, 875 UG/KG/D ON DAYS 1 (1/7 TOTAL DOSE), 8 (2/7 TOTAL DOSE), AND 15 (4/7 TOTAL DOSE) AFTER BIRTH (STUDY DU, Dose: 0, 175, 437.5, 875 UG/KG/D ON DAYS 1 (1/7 TOTAL DOSE), 8 (2/7 TOTAL DOSE), AND 15 (4/7 TOTAL DOSE) AFTER BIRTH (STUDY DU, Tumor Site: Type of Lesion: LUNG: ADENOMA OR ADENOCARCINOMA", "result": "active; positive"}]}, {"smiles": "CCCCNC(=O)OCC#CI", "values": [{"measurement": "carcinogen call", "setting": "Species: Mouse, Strain/Sex: CD-1/Female (50/Group), Route: Oral, Dose: 0, 20, 50, 150 mg/kg/day of 97% 3-iodo-2-propynyl butyl carbamate in diet for 78 wk, study duration 78 wk, Dose: 0, 20, 50, 150 mg/kg/day of 97% 3-iodo-2-propynyl butyl carbamate in diet for 78 wk, study duration 78 wk", "result": "inactive; negative"}, {"measurement": "carcinogen call", "setting": "Species: Mouse, Strain/Sex: CD-1/Male (50/Group), Route: Oral, Dose: 0, 20, 50, 150 mg/kg/day of 97% 3-iodo-2-propynyl butyl carbamate in diet for 78 wk, study duration 78 wk, Dose: 0, 20, 50, 150 mg/kg/day of 97% 3-iodo-2-propynyl butyl carbamate in diet for 78 wk, study duration 78 wk", "result": "inactive; negative"}, {"measurement": "carcinogen call", "setting": "Species: Rat, Strain/Sex: Sprague-Dawley/Female (50/group), Route: Oral, Dose: 0, 20, 40, 80 mg/kg/day of 97% 3-iodo-2-propynyl butyl carbamate in diet for 104 wk, study duration 104 wk, Dose: 0, 20, 40, 80 mg/kg/day of 97% 3-iodo-2-propynyl butyl carbamate in diet for 104 wk, study duration 104 wk", "result": "inactive; negative"}, {"measurement": "carcinogen call", "setting": "Species: Rat, Strain/Sex: Sprague-Dawley/Male (50/group), Route: Oral, Dose: 0, 20, 40, 80 mg/kg/day of 97% 3-iodo-2-propynyl butyl carbamate in diet for 104 wk, study duration 104 wk, Dose: 0, 20, 40, 80 mg/kg/day of 97% 3-iodo-2-propynyl butyl carbamate in diet for 104 wk, study duration 104 wk", "result": "inactive; negative"}]}, {"smiles": "O=C[C@H](O)[C@@H](O)[C@H](O[C@@H]1O[C@H](CO)[C@H](O)[C@H](O)[C@H]1O)[C@H](O)CO", "values": [{"measurement": "carcinogen call", "setting": "Species: RAT, Strain/Sex: SPF/FEMALE, Route: ORAL, Dose: 0, 20% IN DIET FOR DURATION OF STUDY ADMINISTERED TO OFFSPRING OF RATS FED THE SAME DIETS (STUDY DURATION: 130 WK)", "result": "inactive; negative"}, {"measurement": "carcinogen call", "setting": "Species: RAT, Strain/Sex: SPF/MALE, Route: ORAL, Dose: 0, 20% IN DIET FOR DURATION OF STUDY ADMINISTERED TO OFFSPRING OF RATS FED THE SAME DIETS (STUDY DURATION: 130 WK), Tumor Site: Type of Lesion: ADRENAL GLAND: MEDULLARY TUMORS, TESTES: LEYDIG CELL TUMOR", "result": "active; positive"}]}, {"smiles": "CCN(CC(F)(F)F)N=O", "values": [{"measurement": "carcinogen call", "setting": "Species: RAT, Strain/Sex: SPRAGUE-DAWLEY/MALE, Route: GAVAGE, Dose: 7.5, 15, 30, 60 MG/KG IN VEGETABLE OIL 2/WK, Dose: 7.5, 15, 30, 60 MG/KG IN VEGETABLE OIL 2/WK, Tumor Site: Type of Lesion: ESOPHAGUS: CARCINOMA, NASAL CAVITY: SQUAMOUS CELL CARCINOMA", "result": "active; positive"}]}, {"smiles": "Cc1cccc2cccnc12", "values": [{"measurement": "carcinogen call", "setting": "Species: MOUSE, Strain/Sex: CD-1/FEMALE, Route: INTRAPERITONEAL, Dose: 0, 0.25, 0.5, 1.0 UMOL IN DMSO TO NEWBORN MICE ON DAYS 1, 8 AND 15 OF LIFE RESPECTIVELY (TOTAL DOSE: 1.75 UMOL) (STUDY D, Dose: 0, 0.25, 0.5, 1.0 UMOL IN DMSO TO NEWBORN MICE ON DAYS 1, 8 AND 15 OF LIFE RESPECTIVELY (TOTAL DOSE: 1.75 UMOL) (STUDY D", "result": "inactive; negative"}, {"measurement": "carcinogen call", "setting": "Species: MOUSE, Strain/Sex: CD-1/MALE, Route: INTRAPERITONEAL, Dose: 0, 0.25, 0.5, 1.0 UMOL IN DMSO TO NEWBORN MICE ON DAYS 1, 8 AND 15 OF LIFE RESPECTIVELY (TOTAL DOSE: 1.75 UMOL) (STUDY D, Dose: 0, 0.25, 0.5, 1.0 UMOL IN DMSO TO NEWBORN MICE ON DAYS 1, 8 AND 15 OF LIFE RESPECTIVELY (TOTAL DOSE: 1.75 UMOL) (STUDY D", "result": "inactive; negative"}, {"measurement": "carcinogen call", "setting": "Species: RAT, Strain/Sex: F344/MALE,FEMALE, Route: ORAL, Dose: 0.05% IN DIET FOR 2 YR", "result": "inactive; negative"}, {"measurement": "carcinogen call", "setting": "Species: RAT, Strain/Sex: SPRAGUE-DAWLEY/MALE, Route: SUBCUTANEOUS, Dose: 0, 200 UMOL/KG IN DMSO INTO SUPRASCAPULAR AREA ON DAY 1 OF LIFE FOLLOWED BY 0, 100 UMOL 1/WK AT WK 2-7 THEN 0, 200 UMOL/, Dose: 0, 200 UMOL/KG IN DMSO INTO SUPRASCAPULAR AREA ON DAY 1 OF LIFE FOLLOWED BY 0, 100 UMOL 1/WK AT WK 2-7 THEN 0, 200 UMOL/", "result": "inactive; negative"}, {"measurement": "carcinogen call", "setting": "Species: SPRAGUE-DAWLEY/MALE, Strain/Sex: SPRAGUE-DAWLEY/FEMALE, Route: SUBCUTANEOUS, Dose: 0, 200 UMOL/KG IN DMSO INTO SUPRASCAPULAR AREA ON DAY 1 OF LIFE FOLLOWED BY 0, 100 UMOL 1/WK AT WK 2-7 THEN 0, 200 UMOL/, Dose: 0, 200 UMOL/KG IN DMSO INTO SUPRASCAPULAR AREA ON DAY 1 OF LIFE FOLLOWED BY 0, 100 UMOL 1/WK AT WK 2-7 THEN 0, 200 UMOL/", "result": "inactive; negative"}]}, {"smiles": "C[C@]12C=CC(=O)C=C1CC[C@@H]1[C@@H]2[C@@H](O)C[C@@]2(C)[C@H]1CC[C@]2(O)C(=O)CO", "values": [{"measurement": "carcinogen call", "setting": "Species: RAT, Strain/Sex: SPRAGUE-DAWLEY/FEMALE, Route: GAVAGE, Dose: 0, 3 MG/KG ADMINISTERED 1, 2, 4.5 OR 9 TIMES PER MO FOR 18 MO TO GIVE MEDIAN TOTAL DOSES OF 54, 108, 234, 468 MG/KG (STU, Dose: 0, 3 MG/KG ADMINISTERED 1, 2, 4.5 OR 9 TIMES PER MO FOR 18 MO TO GIVE MEDIAN TOTAL DOSES OF 54, 108, 234, 468 MG/KG (STU", "result": "inactive; negative"}, {"measurement": "carcinogen call", "setting": "Species: RAT, Strain/Sex: SPRAGUE-DAWLEY/MALE, Route: ORAL, Dose: 0, 40 UG/ML IN DRINKING WATER FOR AN AVERAGE DAILY DOSE OF 368 UG/KG FOR 104 WK (STUDY DURATION: 104 WK), Tumor Site: Type of Lesion: LIVER: HEPATOCELLULAR ADENOMA OR CARCINOMA", "result": "active; positive"}]}, {"smiles": "Nc1ccc(O)c([N+](=O)[O-])c1", "values": [{"measurement": "carcinogen call", "setting": "Species: MOUSE, Strain/Sex: B6C3F1/FEMALE, Route: ORAL, Dose: 0, 1250, 2500 PPM IN DIET FOR 103 WK (STUDY DURATION: 105 WK), Dose: 0, 1250, 2500 PPM IN DIET FOR 103 WK (STUDY DURATION: 105 WK)", "result": "inactive; negative"}, {"measurement": "carcinogen call", "setting": "Species: MOUSE, Strain/Sex: B6C3F1/MALE, Route: ORAL, Dose: 0, 1250, 2500 PPM IN DIET FOR 103 WK (STUDY DURATION: 105 WK), Dose: 0, 1250, 2500 PPM IN DIET FOR 103 WK (STUDY DURATION: 105 WK)", "result": "inactive; negative"}, {"measurement": "carcinogen call", "setting": "Species: RAT, Strain/Sex: F344/FEMALE, Route: ORAL, Dose: 0, 1250, 2500 PPM IN DIET FOR 103 WK (STUDY DURATION: 105 WK), Dose: 0, 1250, 2500 PPM IN DIET FOR 103 WK (STUDY DURATION: 105 WK), Tumor Site: Type of Lesion: BLADDER: CARCINOMA", "result": "equivocal"}, {"measurement": "carcinogen call", "setting": "Species: RAT, Strain/Sex: F344/MALE, Route: ORAL, Dose: 0, 1250, 2500 PPM IN DIET FOR 103 WK (STUDY DURATION: 105 WK), Dose: 0, 1250, 2500 PPM IN DIET FOR 103 WK (STUDY DURATION: 105 WK), Tumor Site: Type of Lesion: URINARY BLADDER: TRANSITIONAL CELL CARCINOMA", "result": "active; positive"}]}, {"smiles": "O=NN1CCOC1", "values": [{"measurement": "carcinogen call", "setting": "Species: HAMSTER, Strain/Sex: SYRIAN/MALE, Route: INTRAGASTRIC, Dose: 0, 23 MG/ML IN 0.2 ML STERILIZED WATER 1/WK FOR 35 WK (TOTAL DOSE 161 MG) (STUDY DURATION: LIFESPAN), Tumor Site: Type of Lesion: LIVER: HEPATOCELLULAR CARCINOMA, ADENOMA, HEMANGIOSARCOMA, CHOLANGIOCARCINOMA", "result": "active; positive"}, {"measurement": "carcinogen call", "setting": "Species: RAT, Strain/Sex: F344/FEMALE, Route: ORAL, Dose: 35 MG/L IN DRINKING WATER FOR 50 WK, Tumor Site: Type of Lesion: LIVER: HEPATOCELLULAR CARCINOMA, HEMANGIOENDOTHELIAL SARCOMA", "result": "active; positive"}]}, {"smiles": "CC(C)(C)Br", "values": [{"measurement": "carcinogen call", "setting": "Species: MOUSE, Route: INTRAPERITONEAL, Tumor Site: Type of Lesion: LUNG", "result": "active; positive"}]}]}
